Reference: patent US6420387B1, “Farnesyl protein transferase inhibiting (imidazol-5-yl) methyl-2-quinolinone derivatives” (Janssen Pharmaceutica N.V., priority 1995, dated 2002)
Where a name gives a salt, the structure may show the parent alone.

What was measured:
[1] = test system: T24 activated human H-ras gene transformed NIH 3T3 fibroblast cells (T24 cells); test: Farnesyl protein transferase inhibitor secondary tumor model; assay type: in vivo; details: nude mice with subcutaneous T24 cell tumors, 15 days of treatment
Description: The enzyme farnesyl protein transferase catalyzes the covalent attachment of a farnesyl moiety derived from farnesyl pyrophosphate to the oncogene product p21^ras. This directs p21^ras to attach to plasma membranes. Once attached to plasma membranes, mutant or oncogenic forms of p21^ras will provide a signal for the transformation and uncontrolled growth of malignant tumor cells. Therefore, inhibitors of protein farnesyl transferase will prevent the membrane attachment of p21^ras and inhibit growth of ras-transformed tumors.
Nude mice are inoculated with 1×10^6 of T24 activated human H-ras gene transformed NIH 3T3 fibroblast cells (T24 cells), subcutaneously in the inguinal region. After three days to allow tumors to become established, treatment with test compounds is begun via the oral route. The test compounds are dissolved in a 20% β-cyclodextrin in 0.1 N HCl solution and administered orally as 0.1 ml of compound solution per 10 g mouse body weight. Routinely used doses are 6.25, 12.5 and 25 mg/kg. Body weights and tumor sizes are monitored during the ensuing 15 days of treatment. At the end of treatment, animals are sacrificed and tumors are weighed.
The “mean vehicle treated tumor weight” is defined as the mean tumor weight from 10 to 15 mice […].
The “mean tumor weight” is defined as the mean tumor weight from 10 to 15 mice […]. [formula]

[2] = test system: NIH 3T3 cells transformed by the T24 activated human H-ras gene; test: Ras-transformed cell phenotype reversion assay; assay type: cell-based, mouse; details: NIH3T3; cell counts after 72 hours proliferation, corrected for initial input of 200,000 cells
Description: Insertion of activated oncogenes such as the mutant ras gene into mouse NIH 3T3 cells converts the cells to a transformed phenotype. The cells become tumorigenic, display anchorage independent growth in semi-solid medium and lose contact inhibition. Loss of contact inhibition produces cell cultures which no longer form uniform monolayers. Rather, the cells pile up into multicellular nodules and grow to very high saturation densities in plastic tissue culture dishes. Agents such as protein farnesyl transferase inhibitors which revert the ras transformed phenotype restore the uniform monolayer growth pattern to cells in culture. This reversion is easily monitored by counting the number of cells in tissue culture plates. Transformed cells will achieve higher cell numbers than cells which have reverted to an untransformed phenotype. Compounds which revert the transformed phenotype should produce antitumor effects in tumors bearing ras gene mutations.
Compounds are screened in tissue culture in NIH 3T3 cells transformed by the T24 activated human H-ras gene. Cells are seeded at an initial density of 200,000 cells per well (9.6 cm^2 surface area) in six-well cluster tissue culture plates. Test compounds are immediately added to 3.0 ml cell growth medium in a 3.0 μl volume of DMSO, with a final concentration of DMSO in the cell growth medium of 0.1%. The test compounds are run at concentrations of 5, 10, 50, 100, and 500 nM along with a DMSO treated vehicle control. (In case a high activity is observed at 5 nM, the test compound is tested at even lower concentrations.) The cells are allowed to proliferate for 72 hours. Then the cells are detached in 1.0 ml trypsin-EDTA cell dissociation medium and counted on a Coulter particle counter.
Cell numbers expressed as cells per well are measured using a Coulter Particle Counter.
All cell counts were corrected for the initial cell input density by subtracting 200,000.
Control cell counts=[cell counts from cells incubated with DMSO vehicle −200,000].
Test compound cell counts=[cell counts from cells incubated with test compound −200,000]. [formula]
IC50 (i.e. the test compound concentration required to inhibit enzyme activity by 50%) is calculated if sufficient data are available, summarized in table 11.

[3] = biological target: T1, Human farnesyl protein transferase (Homo sapiens, UniProt P49354+P49356); test: In vitro assay for inhibition of farnesyl protein transferase (scintillation proximity assay); assay type: biochemical; details: concentration producing 50% inhibition of enzyme activity; [3H]-farnesylpyrophosphate and biotinylated lamin B peptide substrates, 60 min at 37° C.
T1 construct: grown as monolayer cell cultures were used as a source of human enzyme; endogenous in cells; host or cells: KHOS (Kirsten virus transformed human osteosarcoma) cells, grown as solid tumors in nude mice or as monolayer cultures; 30-50% ammonium sulfate fraction, then Q Fast Flow Sepharose
Method: Human farnesyl protein transferase was prepared essentially as described (Y. Reiss et al., Methods: A Companion to Methods in Enzymology vol 1, 241-245, 1990). Kirsten virus transformed human osteosarcoma (KHOS) cells (American Type Culture Collection, Rockville, Md., USA) grown as solid tumors in nude mice or grown as monolayer cell cultures were used as a source of human enzyme. Briefly, cells or tumors were homogenized in buffer containing 50 mM Tris, 1 mM EDTA, 1 mM EGTA and 0.2 mM phenylmethylsulfonylfluoride (pH 7.5). The homogenates were centrifuged 28,000×g for 60 min and the supernatants collected. A 30-50% ammonium sulfate fraction was prepared, and the resulting precipitate was resuspended in a small (10 to 20 ml) volume of dialysis buffer containing 20 mM Tris 1 mM dithiothreitol and 20 μM ZnCl2. The ammonium sulfate fraction was dialyzed overnight against two changes of the same buffer. The dialyzed material was applied to a 10×1 cm Q Fast Flow Sepharose (Pharmacia LKB Biotechnology Inc., Piscataway, N.J., USA) which had been preequilibrated with 100 ml of dialysis buffer supplemented with 0.05 M NaCl. The column was washed with an additional 50 ml of dialysis buffer plus 0.05 M NaCl followed by a gradient from 0.05 M to 0.25 M NaCl prepared in dialysis buffer. The enzyme activity was eluted with a linear gradient of 0.25 to 1.0 M NaCl prepared in the dialysis buffer. Fractions containing 4 to 5 ml volumes of column eluate were collected and analyzed for farnesyl protein transferase activity. Fractions with enzyme activity were pooled and supplemented with 100 μM ZnCl2. Enzyme samples were stored frozen at −70° C.
The activity of farnesyl protein transferase was measured using the Farnesyl Transferase [^3H] Scintillation Proximity Assay (Amersham International plc., England) under the conditions specified by the manufacturer. To assay for inhibitors of the enzyme, 0.20 μCi of the [^3H]-famesylpyrophosphate substrate and the biotinylated lamin B peptide substrate (biotin-YRASNRSCAIM) were mixed with test compounds in a reaction buffer consisting of 50 mM HEPES, 30 mM MgCl2, 20 mM KCl, 5 mM dithiothreitol, 0.01% Triton X-100. Test compounds were delivered in a 10 μl volume of dimethylsulfoxide (DMSO) to achieve concentrations of 1 and 10 μg/ml in a final volume of 100 μl. The reaction mixture was warmed to 37° C. The enzyme reaction was started by adding 20 μl of diluted human farnesyl protein transferase. Sufficient enzyme preparation was added to produce between 4000 to 15000 cpm of reaction product during the 60 min of reaction incubation at 37° C. Reactions were terminated by the addition of STOP/scintillation proximity bead reagent (Amersham). The reaction product [^3H]-farnesyl-(Cys)-biotin lamin B peptide was captured on the streptavidin linked scintillation proximity bead. The amount of [^3H]-farnesyl-(Cys)-biotin lamin B peptide synthesized in the presence or absence of test compounds was quantified as cpm by counting on a Wallac Model 1480 Microbeta Liquid Scintillation Counter. The cpm of product was considered to be farnesyl protein transferase activity. The protein farnesyl transferase activity observed in the presence of test compound was normalized to farnesyl transferase activity in the presence of 10% DMSO and expressed as per cent inhibition. […] The effects of test compounds in these studies were calculated as IC50 (concentration of test compound producing 50% inhibition of enzyme activity) using the LGICV50 computer program written by the Science Information Division of R. W. Johnson Pharmaceutical Research Institute (Spring House, Pa., USA) on a VAX computer.

Row | Structure (SMILES) | IC50 [3] | melting point | % reduction final tumor weight at a dose of 25 mg/kg bid, po [1] | IC50 [2]
1 | Cn1cncc1C(N)(c1ccc(Cl)cc1)c1ccc2c(c1)c(-c1cccc(Cl)c1)cc(=O)n2C (racemic) [Compound 14, (±)-6-[amino(4-chlorophenyl)(1-methyl-1H-imidazol-5-yl)methyl]-4-(3-chlorophenyl)-1-methyl-2(1H)-quinolinone] |  |  | 66% | 3.8 nM
2 | CCOc1cccc(-c2cc(=O)n(C)c3ccc(C(c4ccc(Cl)cc4)c4cncn4C)cc23)c1 (stereo not shown) [Compound 35, 6-[(4-chlorophenyl)(1-methyl-1H-imidazol-5-yl)methyl]-4-(3-ethoxyphenyl)-1-methyl-2(1H)-quinolinone monohydrochloride.monohydrate] | 0.39 nM |  | 39% | 3.4 nM
3 | CCCCn1cncc1C(O)(c1ccc(Cl)cc1)c1ccc2c(c1)c(-c1cccc(Cl)c1)cc(=O)n2C (racemic) [Compound 9, (±)-4-(3-chlorophenyl)-6-[(1-butyl-1H-imidazol-5-yl)(4-chlorophenyl)hydroxymethyl]-1-methyl-2(1H)-quinolinone] |  | 174.6 °C |  | 
4 | Cn1cncc1C(c1ccc(Cl)cc1)c1ccc2c(c1)c(-c1cccc(Cl)c1)cc(=O)n2C (racemic) (hydrate or solvate) [Compound 5, (±)-4-(3-chlorophenyl)-6-[(4-chlorophenyl)(1-methyl-1H-imidazol-5-yl)methyl]-1-methyl-2(1H)-quinolinone ethanedioate(1:1).mono-hydrate] |  | 157.4 °C |  | 
5 | COC(c1ccc(Cl)cc1)(c1ccc2c(c1)c(-c1cccc(Cl)c1)cc(=O)n2C)c1cncn1C (racemic) (hydrate or solvate) [Compound 4, (±)-4-(3-chlorophenyl)-6-[(4-chlorophenyl)methoxy(1-methyl-1H-imidazol-5-yl)methyl]-1-methyl-2(1H)-quinolinone ethanedioate(1:1).dihydrate] |  | 154.6 °C |  | 
6 | Cn1cncc1C(c1ccc(Cl)cc1)c1ccc2c(c1)c(-c1ccccc1)cc(=O)n2C (racemic) [Compound 2, (±)-6-[(4chlorophenyl)(1-methyl-1H-imidazol-5-yl)methyl]-1-methyl-4-phenyl-2(1H)-quinolinone] | 8 nM | 96.8 °C |  | 
7 | CC(=O)NC(c1ccc(Cl)cc1)(c1ccc2c(c1)c(-c1cccc(Cl)c1)cc(=O)n2C)c1cncn1C.O=C(O)C(=O)O (racemic) [Compound 56, (±)-N-[(4-chlorophenyl)[4-(3-chlorophenyl)-1,2-dihydro-1-methyl-2-oxo-6-quinolinyl](1-methyl-1H-imidazol-5-yl)methyl]acetamide ethanedioate (1:1)] |  |  | 42% | 23 nM
8 | Cn1cncc1C(CO)(c1ccc(Cl)cc1)c1ccc2c(c1)c(-c1cccc(Cl)c1)cc(=O)n2C (stereo not shown) [Compound 71] | 26 nM |  |  | 288 nM

Further lines, with some results ahead:

Row | IC50 [3] | melting point | Structure (SMILES) | % reduction final tumor weight at a dose of 25 mg/kg bid, po [1] | IC50 [2]
9 | 4.2 nM | 203.9 °C | Cn1cncc1C(C)(c1ccc(Cl)cc1)c1ccc2c(c1)c(-c1cccc(Cl)c1)cc(=O)n2C (racemic) [Compound 12, (±)-4-(3-chlorophenyl)-6-[1-(4-chlorophenyl)-1-(1-methyl-1H-imidazol-5-yl)ethyl]-1-methyl-2(1H)-quinolinone.ethanedioate (1:1)] |  | 66 nM
10 | 1.6 nM |  | CCOc1cccc(-c2cc(=O)n(C)c3ccc(C(O)(c4ccc(Cl)cc4)c4cncn4C)cc23)c1 (stereo not shown) [Compound 34, 6-[(4-chlorophenyl)hydroxy(1-methyl-1H-imidazol-5-yl)methyl]-4-(3-ethoxyphenyl)-1-methyl-2(1H)-quinolinone] | 56% | 3 nM
11 |  | 149.9 °C | Cn1cnc(C(c2ccc(Cl)cc2)c2ccc3c(c2)c(-c2ccccc2)cc(=O)n3C)c1 (racemic) [Compound 44, (±)-6-[(4-chlorophenyl)(1-methyl-1H-imidazol-4-yl)methyl]-1-methyl-4-phenyl-2(1H)-quinolinone] |  | 
12 | 57 nM |  | CCOCCCOC(c1ccc(Cl)cc1)(c1ccc2c(c1)c(-c1cccc(Cl)c1)cc(=O)n2C)c1cncn1C (stereo not shown) [Compound 29] |  | 345 nM
13 | 1.7 nM | 233.6 °C | Cn1cncc1C(O)(c1ccc(Cl)cc1)c1ccc2c(c1)c(-c1cccc(Cl)c1)cc(=O)n2C (racemic) [Compound 3, (±)-4-(3-chlorophenyl)-6-[(4-chlorophenyl)hydroxy(1-methyl-1H-imidazol-5-yl)methyl]-1-methyl-2(1H)-quinolinone] |  | 
14 | 2.2 nM | 151.3 °C | Cn1cncc1C(CC#N)(c1ccc(Cl)cc1)c1ccc2c(c1)c(-c1cccc(Cl)c1)cc(=O)n2C (racemic) [Compound 25, (±)-4-(3-chlorophenyl)-β-(4-chlorophenyl)-1,2-dihydro-1-methyl-β-(1-methyl-1H-imidazol-5-yl)-2-oxo-6-quinolinepropanenitrile] |  | 86 nM
